Laboratory results reported in patent US9062061B2, “Compound having PARP inhibitory activity” (SANTEN PHARMACEUTICAL CO., LTD., priority 2011, dated 2015).

Each compound was assayed against T1, human recombinant PARP1 (Homo sapiens, UniProt P09874) (assay: PARP inhibitory activity measurement test (Universal Colorimetric PARP Assay kit, Trevigen)). Conditions: compound concentration: 10 μM, read-out: PARP1 inhibition rate (%).
T1 construct: purchased Trevigen 4677-096-K
T1 sequence (P09874 whole entry): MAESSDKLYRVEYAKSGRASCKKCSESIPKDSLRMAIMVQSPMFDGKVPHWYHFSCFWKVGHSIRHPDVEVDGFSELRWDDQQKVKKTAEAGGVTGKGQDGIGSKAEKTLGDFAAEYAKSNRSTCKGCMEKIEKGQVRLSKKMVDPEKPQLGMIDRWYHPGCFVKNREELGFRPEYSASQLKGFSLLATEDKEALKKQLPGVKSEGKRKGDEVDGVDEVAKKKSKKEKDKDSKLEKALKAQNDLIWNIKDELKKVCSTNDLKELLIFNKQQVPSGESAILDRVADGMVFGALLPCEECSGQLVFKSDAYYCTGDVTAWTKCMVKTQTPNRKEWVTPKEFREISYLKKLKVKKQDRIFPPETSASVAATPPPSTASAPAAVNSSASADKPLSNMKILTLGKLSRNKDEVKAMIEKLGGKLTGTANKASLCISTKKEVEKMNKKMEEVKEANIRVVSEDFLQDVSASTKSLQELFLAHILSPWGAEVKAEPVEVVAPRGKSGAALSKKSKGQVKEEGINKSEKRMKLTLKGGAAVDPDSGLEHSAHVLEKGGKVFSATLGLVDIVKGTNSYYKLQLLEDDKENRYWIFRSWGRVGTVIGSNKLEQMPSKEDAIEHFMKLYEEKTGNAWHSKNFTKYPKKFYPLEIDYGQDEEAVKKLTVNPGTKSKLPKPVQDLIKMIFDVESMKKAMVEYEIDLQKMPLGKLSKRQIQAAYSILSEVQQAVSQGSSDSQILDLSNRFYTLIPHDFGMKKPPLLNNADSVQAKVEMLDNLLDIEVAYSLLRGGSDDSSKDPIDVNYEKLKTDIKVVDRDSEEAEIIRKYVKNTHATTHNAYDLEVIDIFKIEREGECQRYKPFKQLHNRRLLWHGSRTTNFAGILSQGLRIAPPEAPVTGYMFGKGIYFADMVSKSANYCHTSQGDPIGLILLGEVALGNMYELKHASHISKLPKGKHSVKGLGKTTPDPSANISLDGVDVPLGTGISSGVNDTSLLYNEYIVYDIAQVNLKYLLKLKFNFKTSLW
Format: biochemical
Experimental: For evaluating PARP inhibitory activity of the present compound, inhibitory activity of each test compound against human recombinant PARP 1 was measured using Universal Colorimetric PARP Assay kit with Histone-Coated Strip Wells (Cat No.: 4677-096-K) available from Trevigen. The test was conducted according to the procedure in the instruction attached to this kit. The concrete operation will be described below.
After dissolving the test compound in dimethyl sulfoxide, the solution was diluted with a PARP buffer attached to the kit to prepare a 50 μM test compound solution.
In each well of a histone-coated 96-well plate, 10 μL of the test compound solution (50 μM), 15 μL of human recombinant PARP1 (33.3 Unit/mL) and 25 μL of PARP cocktail (containing activated DNA and biotinated NAD) were added, and incubated at room temperature for 1 hour (final reaction amount: 50 μL). Each well was washed twice with 200 μL of 0.1% Triton-X-containing Dulbecco's phosphate buffer, and further washed twice with 200 μL of Dulbecco's phosphate buffer, and then 50 μL of Strep-HRP was added, followed by incubation at room temperature for 1 hour. Each well was washed twice with 200 μL of 0.1% Triton-X-containing Dulbecco's phosphate buffer, and further washed twice with 200 μL of Dulbecco's phosphate buffer, and then 50 μL of TACS-Sapphire coloriometric substrate was added, followed by incubation at room temperature for 15 minutes. After stopping the reaction by adding 50 μL of 0.2 M HCl, absorbance at 450 nm (Abs 450) was measured by a microplate reader. The number of examples in each group was 1 to 2.
Using a well into which dimethyl sulfoxide and a PARP buffer were added in place of the test compound solution and human recombinant PARP1, the above operation was conducted as a negative control.
Using a well into which a PARP buffer containing dimethyl sulfoxide was added in place of the test compound solution, the above operation was conducted as a positive control.
PARP1 inhibition rate (%) was calculated according to the following Formula 1. PARP1 inhibition rate(%)=(AbsB−AbsX)/(AbsB−AbsA)×100 [Formula 1]
AbsA: absorbance of negative control (Abs 450)
AbsB: absorbance of positive control (Abs 450)
AbsX: absorbance of test compound-treated group (Abs 450)
O=C(c1cc2[nH]c(=O)c3ccccc3n2c1)N1CCN(c2ccc(F)cc2)CC1 [Compound 1-1, 2-[4-(4-Fluorophenyl)piperazine-1-carbonyl]pyrrolo[1,2-a]quinazolin-5(4H)-one] showed an inhibition at 10 µM of 90%. In the case of O=C(c1cc2[nH]c(=O)c3ccccc3n2c1)N1CCN(Cc2ccc(Cl)cc2)CC1 [Compound 1-2, 2-[4-(4-Chlorobenzyl)piperazine-1-carbonyl]pyrrolo[1,2-a]quinazolin-5(4H)-one], the inhibition at 10 µM was 55%. O=C(c1cc2[nH]c(=O)c3ccccc3n2c1)N1CCN(c2nccs2)CC1 [Compound 1-3, 2-[4-(Thiazol-2-yl)piperazine-1-carbonyl]pyrrolo[1,2-a]quinazolin-5(4H)-one] showed an inhibition at 10 µM of 100%. In the case of O=C(c1cc2[nH]c(=O)c3ccccc3n2c1)N1CCN(c2ccccc2)CC1 [Compound 1-4, 2-(4-Phenylpiperazine-1-carbonyl)pyrrolo[1,2-a]quinazolin-5(4H)-one], the inhibition at 10 µM was 99%. With O=C(c1cc2[nH]c(=O)c3ccccc3n2c1)N1CCC(c2ccccc2)CC1 [Compound 1-5, 2-(4-Phenylpiperidine-1-carbonyl)pyrrolo[1,2-a]quinazolin-5(4H)-one] the inhibition at 10 µM was 71%. O=C(c1cc2[nH]c(=O)c3ccccc3n2c1)N1CC=C(c2ccccc2)CC1 [Compound 1-6, 2-(4-Phenyl-1,2,3,6-tetrahydropyridine-1-carbonyl)pyrrolo[1,2-a]quinazolin-5(4H)-one] was tested, and the inhibition at 10 µM was 23%. In the case of O=C(c1cc2[nH]c(=O)c3ccccc3n2c1)N1CC=C(c2ccc(Cl)cc2)CC1 [Compound 1-7, 2-[4-(4-Chlorophenyl)-1,2,3,6-tetrahydropyridine-1-carbonyl]pyrrolo[1,2-a]quinazolin-5(4H)-one], the inhibition at 10 µM was 44%. With O=C(c1cc2[nH]c(=O)c3ccccc3n2c1)N1CC=C(c2ccc(F)cc2)CC1 [Compound 1-8, 2-[4-(4-Fluorophenyl)-1,2,3,6-tetrahydropyridine-1-carbonyl]pyrrolo[1,2-a]quinazolin-5(4H)-one] the inhibition at 10 µM was 51%. Compound CN1CCN(C(=O)c2cc3[nH]c(=O)c4ccccc4n3c2)CC1 [Compound 1-10, 2-(4-Methylpiperazine-1-carbonyl)pyrrolo[1,2-a]quinazolin-5(4H)-one] has an inhibition at 10 µM of 68%. O=C(c1cc2[nH]c(=O)c3ccccc3n2c1)N1CCN(Cc2ccccc2)CC1 [Compound 1-11, 2-(4-Benzylpiperazine-1-carbonyl)pyrrolo[1,2-a]quinazolin-5(4H)-one] showed an inhibition at 10 µM of 86%. O=C(c1cc2[nH]c(=O)c3ccccc3n2c1)N1CCN(c2ccc(Cl)cc2)CC1 [Compound 1-12, 2-[4-(4-Chlorophenyl)piperazine-1-carbonyl]pyrrolo[1,2-a]quinazolin-5(4H)-one] gave an inhibition at 10 µM of 64%. With O=C(c1cc2[nH]c(=O)c3ccccc3n2c1)N1CCN(Cc2ccc(F)cc2)CC1 [Compound 1-13, 2-[4-(4-Fluorobenzyl)piperazine-1-carbonyl]pyrrolo[1,2-a]quinazolin-5(4H)-one] the inhibition at 10 µM was 67%. In the case of O=C(c1cc2[nH]c(=O)c3ccccc3n2c1)N1CCC(c2ccc(F)cc2)CC1 [Compound 1-14, 2-[4-(4-Fluorophenyl)piperidine-1-carbonyl]pyrrolo[1,2-a]quinazolin-5(4H)-one], the inhibition at 10 µM was 44%. Work on O=C(c1cc2[nH]c(=O)c3ccccc3n2c1)N1CCN(c2cccc(F)c2)CC1 [Compound 1-15, 2-[4-(3-Fluorophenyl)piperazine-1-carbonyl]pyrrolo[1,2-a]quinazolin-5(4H)-one] yielded an inhibition at 10 µM of 74%. O=C(c1cc2[nH]c(=O)c3ccccc3n2c1)N1CCc2ccccc2C1 [Compound 1-21, 2-(3,4-Dihydroisoquinoline-2(1H)-carbonyl)pyrrolo[1,2-a]quinazolin-5(4H)-one] showed an inhibition at 10 µM of 84%. CC(C)(C)OC(=O)N1CCCN(C(=O)c2cc3[nH]c(=O)c4ccccc4n3c2)CC1 [Compound 1-47, 2-[4-(tert-Butoxycarbonyl)homopiperazine-1-carbonyl]pyrrolo[1,2-a]quinazolin-5(4H)-one] gave an inhibition at 10 µM of 93%. O=C(Nc1ccccc1)c1cc2[nH]c(=O)c3ccccc3n2c1 [Compound 1-49, 2-(Phenylaminocarbonyl)pyrrolo[1,2-a]quinazolin-5(4H)-one] showed an inhibition at 10 µM of 36%. For CN1CCCN(C(=O)c2cc3[nH]c(=O)c4ccccc4n3c2)CC1 [Compound 1-50, 2-(4-Methylhomopiperazine-1-carbonyl)pyrrolo[1,2-a]quinazolin-5(4H)-one], the inhibition at 10 µM was 92%. Work on CN(C)CCNC(=O)c1cc2[nH]c(=O)c3ccccc3n2c1 [Compound 1-51, 2-[(2-Dimethylaminoethyl)aminocarbonyl]pyrrolo[1,2-a]quinazolin-5(4H)-one] yielded an inhibition at 10 µM of 92%. O=C(NCc1ccncc1)c1cc2[nH]c(=O)c3ccccc3n2c1 [Compound 1-52, 2-[(Pyridin-4-ylmethyl)aminocarbonyl]pyrrolo[1,2-a]quinazolin-5(4H)-one] gave an inhibition at 10 µM of 94%. Work on O=C(NCCN1CCOCC1)c1cc2[nH]c(=O)c3ccccc3n2c1 [Compound 1-53, 2-[2-(Morpholin-4-ylethyl)aminocarbonyl]pyrrolo[1,2-a]quinazolin-5(4H)-one] yielded an inhibition at 10 µM of 96%. With O=C(NCc1ccccc1)c1cc2[nH]c(=O)c3ccccc3n2c1 [Compound 1-54, 2-(Benzylaminocarbonyl)pyrrolo[1,2-a]quinazolin-5(4H)-one] the inhibition at 10 µM was 81%. Compound O=C(NCCc1ccccc1)c1cc2[nH]c(=O)c3ccccc3n2c1 [Compound 1-55, 2-(2-Phenylethylaminocarbonyl)pyrrolo[1,2-a]quinazolin-5(4H)-one] has an inhibition at 10 µM of 81%. For O=C(NCCCc1ccccc1)c1cc2[nH]c(=O)c3ccccc3n2c1 [Compound 1-56, 2-(3-Phenylpropylaminocarbonyl)pyrrolo[1,2-a]quinazolin-5(4H)-one], the inhibition at 10 µM was 83%. For O=c1[nH]c2cc(CN3CCN(Cc4ccc(Cl)cc4)CC3)cn2c2ccccc12 [Compound 2-2, 2-[4-(4-Chlorobenzyl)piperazin-1-ylmethyl]pyrrolo[1,2-a]quinazolin-5(4H)-one], the inhibition at 10 µM was 78%. Work on O=c1[nH]c2cc(CN3CCN(c4nccs4)CC3)cn2c2ccccc12 [Compound 2-3, 2-[4-(Thiazol-2-yl)piperazin-1-ylmethyl]pyrrolo[1,2-a]quinazolin-5(4H)-one] yielded an inhibition at 10 µM of 99%. With O=c1[nH]c2cc(CN3CCN(c4ccccc4)CC3)cn2c2ccccc12 [Compound 2-4, 2-(4-Phenylpiperazin-1-ylmethyl)pyrrolo[1,2-a]quinazolin-5(4H)-one] the inhibition at 10 µM was 100%. Compound O=c1[nH]c2cc(CN3CC=C(c4ccccc4)CC3)cn2c2ccccc12 [Compound 2-6, 2-(4-Phenyl-1,2,3,6-tetrahydropyridin-1-ylmethyl)pyrrolo[1,2-a]quinazolin-5(4H)-one] has an inhibition at 10 µM of 100%. CN1CCN(Cc2cc3[nH]c(=O)c4ccccc4n3c2)CC1 [Compound 2-10, 2-(4-Methylpiperazin-1-ylmethyl)pyrrolo[1,2-a]quinazolin-5(4H)-one] showed an inhibition at 10 µM of 98%. For O=c1[nH]c2cc(CN3CCN(Cc4ccccc4)CC3)cn2c2ccccc12 [Compound 2-11, 2-(4-Benzylpiperazin-1-ylmethyl)pyrrolo[1,2-a]quinazolin-5(4H)-one], the inhibition at 10 µM was 99%. For O=c1[nH]c2cc(CN3CCN(Cc4ccc(F)cc4)CC3)cn2c2ccccc12 [Compound 2-13, 2-[4-(4-Fluorobenzyl)piperazin-1-ylmethyl]pyrrolo[1,2-a]quinazolin-5(4H)-one], the inhibition at 10 µM was 96%.
